Measurements as given in patent US20110318298A1, “VIRAL INFECTION THERAPEUTIC DRUG CONTAINING POLYALKYLENEIMINE” (Nippon Shokubai Co., Ltd., priority 2008, published 2011).
Values after ≈ are worked out from the molar mass of the structure shown. Like-named read-outs stand apart in the source and are kept apart here.

Legend:
HSV-2 [1] = experiment: Comparison of SP-012 and acyclovir in HSV-2-infected mice (Example 9); details: for Number of death/total number: 0.2 mg per administration to the genital until seven days after infection, 15 days observation; for Number of HSV-2 positive mouse/total number: genital wash, first day to 12 days after infection
Experimental: Five to six-week-old female BALB/c mice were locally (genital) inoculated with HSV-2 in an amount of 20 μl (containing a reduced viral amount of 1×10^4 PFU per mouse in consideration of tracing also untreated control mice). […] From the first day to 12 days after the viral infection, the genital was washed with phosphate-buffered physiological saline every day, and the amount of virus therein was measured in each mouse. Also, for 15 days, the severity of the development of the disease and the case of death were recorded.

HSV-2 [2] = experiment: Inhibitory effect on HSV-2 virus invasion of the cells (Vero cells, 37° C.); type: cell-based, herpes simplex virus type 2; details: for Amount of virus invaded in 30 minutes / Amount of virus invaded in 3 hours: Vero cells, 37° C., control = 100%
Excerpt: Subsequently, the inhibitory effect of polyethyleneimine in the stage in which HSV-2 adsorbed to the host cells invades the cells was investigated.

in vitro = details: African green monkey
Experimental: A test for evaluation of the cytotoxicity of polyethyleneimine in each cell was carried out according to the following procedure.
The cell proliferation count was then measured by trypan blue staining.

HSV-2 [3] = experiment: Anti-viral activity on HSV-2, plaque assaying in Vero cells; details: Human alphaherpesvirus 2, Vero
HSV-2 [4] = experiment: Inhibitory effect on HSV-2 virus adsorption to the cells (Vero cells, 4° C.); details: for Amount of virus adsorbed to host cells: Vero cells, 4° C. one hour, control = 100%
MDCK cells = experiment: Cytotoxicity (CC50), cell count by trypan blue staining, MDCK cells; type: cell-based, dog

Nc1nc2c(ncn2COCCO)c(=O)[nH]1 [Acyclovir, acyclovir]
Number of death/total number (HSV-2 [1]): 0/10
Number of death/total number (HSV-2 [1]; listed as acyclovir): No mice died
Development of the disease (genital inflammation) (HSV-2 [1]; 0.2 mg per administration, 10 mice): transient inflammation
Number of HSV-2 positive mouse/total number (HSV-2 [1]; 0.2 mg per administration): 1/10
Number of HSV-2 positive mouse/total number (HSV-2 [1]; 0.2 mg per administration, listed as acyclovir): the virus was detected in one out of 10 mice
Amount of virus invaded in 30 minutes (HSV-2 [2]; 1 μg/ml): 99%
Amount of virus invaded in 30 minutes (HSV-2 [2]; 10 μg/ml): 94%
Amount of virus invaded in 30 minutes (HSV-2 [2]; 100 μg/ml): 87%
Amount of virus invaded in 3 hours (HSV-2 [2]; 100 μg/ml): 89%
Amount of virus invaded in 30 minutes (HSV-2 [2]; 1000 μg/ml): 68%
Amount of virus invaded in 3 hours (HSV-2 [2]; 1000 μg/ml): Toxic
Amount of virus invaded in 30 minutes (HSV-2 [2]; 10000 μg/ml): Toxic
Amount of virus invaded in 3 hours (HSV-2 [2]; 10000 μg/ml): Toxic
Inhibition of viral invasion, overall finding (HSV-2 [2]; over the tested concentrations): did not inhibit HSV-2 virus invasion of the cells
CC50 at 72 h (in vitro): 890 µg/mL (≈ 3950 µM)
IC50 (HSV-2 [3]; read-out: Anti-viral activity (IC50) A): 0.91 µg/mL (≈ 4.04 µM)
IC50 (HSV-2 [3]; read-out: Anti-viral activity (IC50) B): 0.92 µg/mL (≈ 4.09 µM)
Amount of virus adsorbed to host cells (HSV-2 [4]; 100 μg/ml): 76%
Amount of virus adsorbed to host cells (HSV-2 [4]; 1000 μg/ml): Toxic
Amount of virus adsorbed to host cells (HSV-2 [4]; 10000 μg/ml): Toxic
Inhibition of viral adsorption, overall finding (HSV-2 [4]; over the tested concentrations): almost no dose-dependent adsorption-inhibitory effect

polyethyleneimine [P-1000]
Cytotoxicity (CC50) (Vero cells): 0.0044 μl/ml

polyethyleneimine [SP-003]
Cytotoxicity (CC50) (MDCK cells): 0.057 μl/ml
Cytotoxicity (CC50) (Vero cells): 0.071 μl/ml

polyethyleneimine [SP-006]
Cytotoxicity (CC50) (MDCK cells): 0.57 μl/ml
Cytotoxicity (CC50) (Vero cells): 1.1 μl/ml

polyethyleneimine [SP-012]
Cytotoxicity (CC50) (MDCK cells): 0.34 μl/ml

polyethyleneimine [SP-018]
Cytotoxicity (CC50) (MDCK cells): 0.064 μl/ml
Cytotoxicity (CC50) (Vero cells): 0.057 μl/ml

polyethyleneimine [SP-200]
Cytotoxicity (CC50) (Vero cells): 0.0045 µg/mL
